“And” between values parts separate entries of the source, which are not always exact repeats. Equal entries are not always repeated.
Tests used:
[1] = Methaemoglobin levels in Beagle dogs after 7-day oral treatment; conditions: dog, in vivo, 1.25 mg/kg
Procedure: Colony bred beagle dogs were maintained in the kennel house of the Institute and fed with a standard diet.
Treatment was administered once daily for seven doses (day 0–6), the day of the first dose being day 0. […] 5 ml. blood was collected from beagle dogs on day 0, 3, 7, 13 and 25 using potassium-oxalate crystals as anticoagulant. All the estimations/tests were conducted on the same day of collection of blood. Methaemoglobin was assayed by the method of Evelyn and Malloy (1938, J. Biol. Chem., 126, 655–662).

[2] = test system: G-6-PD deficient erythrocytes; test: Reduced glutathione (GSH) in G-6-PD deficient human erythrocytes after 3 h incubation; type: cell-based; conditions: 25 and 50 μg/ml of PQ and equivalent doses, P<0.001
Excerpt: (§1) Drug induced haemolysis is a serious complication in persons deficient in G-6-PD enzyme. The presence of reduced glutathione (GSH) in erythrocytes control the level of oxidative metabolites. Therefore, drugs, which cause lesser oxidation of GSH level are safe. […] G-6-PD deficiency was detected by the fluorescent spot screening test and confirmed by the enzyme assay method. Heparinised blood samples were collected from each individual and after centrifugation, the packed cells were washed three times with cold saline. […] GSH levels were estimated by the method of Bentler et al [Improved Method for the Determination of Blood Glutathione, J. Lab.

[3] = test system: P. cynomolgi B gametocytes; test: Gametocytocidal test: infectivity of gametocytes from treated P. cynomolgi infected Rhesus monkeys to An. stephensi mosquitoes; type: in vivo
Procedure: For the gametocytocidal test, batches of 3–4 day old An. Stephensi were allowed to feed on P. cynomolgi infected Rhesus monkeys at appropriate gametocytaemia level. […] […] Mosquitoes were maintained as 26±1° C. under optimal insectary conditions. The infectivity rate and the oocyst counts were recorded on day 8. Mosquitoes were further maintained in the insectary to record the formation of sporozoites and the absence of sporozoites in some of the batches was also ensured by inoculation of mosquito homogenates into native monkeys.

[4] = test system: sporozoites; test: Infectivity test: mosquito homogenates inoculated into Rhesus monkeys; type: in vivo, P. cynomolgi; conditions: 11 batches; 1.87, 2.5, 3.75 and 5.00 mg base/kg; up to 60 days of observations
Procedure: For the gametocytocidal test, batches of 3–4 day old An. Stephensi were allowed to feed on P. cynomolgi infected Rhesus monkeys at appropriate gametocytaemia level. One hour after the control (pretreatment) feeding, compound of formula 1 was administered to the monkeys at 0.63, 1.25, 1.87, 2.5, 3.75 and 5.0 mg/kg in a single dose by oral route. Post-treatment feeding of batches of healthy mosquitoes was done at different times (5–48 hours). Mosquitoes were maintained as 26±1° C. under optimal insectary conditions. The infectivity rate and the oocyst counts were recorded on day 8. Mosquitoes were further maintained in the insectary to record the formation of sporozoites and the absence of sporozoites in some of the batches was also ensured by inoculation of mosquito homogenates into native monkeys.
Infectivity tests were carried out to ensure that there was no sporozoite development in the mosquito batches found negative for oocysts on day 8 following their feeding on drug treated monkeys. Homogenates of 40–50 mosquitoes each from 11 batches fed on gametocyte carrying monkeys treated with compound 1 at 1.87, 2.5, 3.75 and 5.00 mg base/kg were inoculated into native Rhesus monkeys.

[5] = test system: developing oocysts of P. cynomolgi; test: Effect on developing oocysts in An. stephensi mosquitoes (sporontocidal/oocysticidal action); type: in vivo; conditions: for % infectivity / No. of mosquitoes infected/dissected / oocyst number gut (Mean ± SD): Day 8 oocyst record
[6] = test system: normal erythrocytes; test: Reduced glutathione (GSH) in normal human erythrocytes after 3 h incubation; type: cell-based
Excerpt: as §1

[7] = 0.63 mg/kg single dose, feeding +5 hr
[8] = 0.63 mg/kg single dose, feeding +24 hr
[9] = 0.63 mg/kg single dose, feeding +48 hr
[10] = 0.63 mg/kg single dose, feeding −1 hr (pre-treatment)
[11] = 1.25 mg/kg single dose, feeding +5 hr
[12] = 1.25 mg/kg single dose, feeding +24 hr
[13] = 1.25 mg/kg single dose, feeding +48 hr
[14] = 1.25 mg/kg single dose, feeding −1 hr (pre-treatment)
[15] = 1.87 mg/kg single dose, feeding +24 hr
[16] = 1.87 mg/kg single dose, feeding +48 hr
[17] = 1.87 mg/kg single dose, feeding −1 hr (pre-treatment)
[18] = 3.75 mg/kg single dose, feeding +4 hr
[19] = 3.75 mg/kg single dose, feeding +5 hr
[20] = 3.75 mg/kg single dose, feeding +24 hr
[21] = 3.75 mg/kg single dose, feeding −1 hr (pre-treatment)
[22] = age of infection 24 hr, 50 mg/kg
[23] = age of infection 48 hr, 10 mg/kg
[24] = age of infection 48 hr, 50 mg/kg
[25] = age of infection 72 hr, 10 mg/kg
[26] = age of infection 72 hr, 50 mg/kg
[27] = age of infection 96 hr, 50 mg/kg
[28] = age of infection in mosquitoes 24 hr, fed on monkey given 10 mg/kg at −7 hr

Structure (SMILES): COc1cc(NC(C)CCCN/C(C)=C2/CCOC2=O)c2ncccc2c1 (stereo not drawn) [compound 1, N^1-(3-ethylidinotetrahydrofuran-2-one)-N^4-(6-methoxy-8-quinolinyl)-1,4-pentanediamine]
- increase of Met-Hb values [1]: 1.7 fold
- decrease in GSH level compared to controls [2]: statistically significant
- % infectivity [3, 7]: (45.1) %
- No. of mosquitoes infected/dissected [3, 7]: 23/51
- Oocyst No. per gut (Mean ± SD) [3, 7]: 10.22 ± 6.8
- % infectivity [3, 8]: (32.61) %
- No. of mosquitoes infected/dissected [3, 8]: 15/46
- Oocyst No. per gut (Mean ± SD) [3, 8]: 2.93 ± 2.4
- Parasitaemia/mm^3 Asexual [3, 8]: 30024 /mm^3
- Parasitaemia/mm^3 Gametocytes [3, 8]: 1404 /mm^3
- % infectivity [3, 9]: (0) %
- No. of mosquitoes infected/dissected [3, 9]: 0/24
- Oocyst No. per gut (Mean ± SD) [3, 9]: Nil
- Parasitaemia/mm^3 Asexual [3, 9]: 23220 /mm^3
- Parasitaemia/mm^3 Gametocytes [3, 9]: 756 /mm^3
- % infectivity [3, 10]: (90.0) %
- No. of mosquitoes infected/dissected [3, 10]: 27/30
- Oocyst No. per gut (Mean ± SD) [3, 10]: 86.74 ± 39.2
- Parasitaemia/mm^3 Asexual [3, 10]: 48816 /mm^3
- Parasitaemia/mm^3 Gametocytes [3, 10]: 1728 /mm^3
- oocyst number and percent infectivity compared to control feedings at −1 hr ([3]; 0.63 mg/kg, +5 h and +24 h post-treatment): significant reduction
- sporozoites in salivary gland dissections on day 15 ([3]; 0.63 mg/kg, batches fed +5 h and +24 h): presence of sporozoites
- oocysts over the midguts ([3]; 0.63 mg/kg, mosquitoes fed at +48 hr): No oocysts were observed
- monkeys with marked oocyst decrease at 4–5 hr and no oocysts or sporozoites in batches fed +24 hr and +48 hr ([3]; 1.25 mg/kg): 2/2
- No. of mosquitoes infected/dissected [3, 11]: 12/57 and 15/70
- Oocyst No. per gut (Mean ± SD) [3, 11]: 2.17 ± 1.7 and 2.60 ± 1.7
- % infectivity [3, 12]: (0) %
- No. of mosquitoes infected/dissected [3, 12]: 0/36 and 0/30
- Oocyst No. per gut (Mean ± SD) [3, 12]: Nil
- % infectivity [3, 13]: (0) %
- No. of mosquitoes infected/dissected [3, 13]: 0/24
- Oocyst No. per gut (Mean ± SD) [3, 13]: Nil
- Parasitaemia/mm^3 Asexual [3, 13]: 15914 /mm^3
- Parasitaemia/mm^3 Gametocytes [3, 13]: 109 /mm^3
- No. of mosquitoes infected/dissected [3, 14]: 34/38 and 20/47
- Oocyst No. per gut (Mean ± SD) [3, 14]: 22.35 ± 11.8 and 14.40 ± 7.29
- Parasitaemia/mm^3 Gametocytes [3, 14]: 1895 /mm^3 and 1026 /mm^3
- monkeys with marked oocyst decrease at 4–5 hr and no oocysts or sporozoites in batches fed +24 hr and +48 hr ([3]; 1.87 mg/kg): 2/2
- No. of mosquitoes infected/dissected ([3]; 1.87 mg/kg single dose, feeding +4 hr): 6/40 and 18/31
- % infectivity [3, 15]: (0) %
- No. of mosquitoes infected/dissected [3, 15]: 0/27 and 0/38
- Oocyst No. per gut (Mean ± SD) [3, 15]: Nil and Nil**
- Parasitaemia/mm^3 Gametocytes [3, 15]: 530 /mm^3 and 798 /mm^3
- % infectivity [3, 16]: (0) %
- No. of mosquitoes infected/dissected [3, 16]: 0/24 and 0/21
- Oocyst No. per gut (Mean ± SD) [3, 16]: Nil
- Parasitaemia/mm^3 Asexual [3, 16]: 7208 /mm^3 and 5130 /mm^3
- Parasitaemia/mm^3 Gametocytes [3, 16]: 212 /mm^3 and 228 /mm^3
- No. of mosquitoes infected/dissected [3, 17]: 25/30 and 23/25
- Parasitaemia/mm^3 Asexual [3, 17]: 33602 /mm^3 and 61560 /mm^3
- Parasitaemia/mm^3 Gametocytes [3, 17]: 1166 /mm^3 and 1026 /mm^3
- monkeys with oocyst development completely blocked in batches fed 4–5 hr and +24 hr post-treatment ([3]; 3.75 mg/kg): 5/5
- % infectivity [3, 18]: (0) %
- No. of mosquitoes infected/dissected [3, 18]: 0/25 and 0/21 and 0/41
- Oocyst No. per gut (Mean ± SD) [3, 18]: Nil
- % infectivity [3, 19]: (0) %
- No. of mosquitoes infected/dissected [3, 19]: 0/30
- Oocyst No. per gut (Mean ± SD) [3, 19]: Nil**
- % infectivity [3, 20]: (0) %
- No. of mosquitoes infected/dissected [3, 20]: 0/28 and 0/21 and 0/30 and 0/27
- Oocyst No. per gut (Mean ± SD) [3, 20]: Nil and Nil**
- No. of mosquitoes infected/dissected [3, 21]: 26/27 and 15/22 and 33/40 and 22/22
- Parasitaemia/mm^3 Asexual [3, 21]: 55728 /mm^3 and 45796 /mm^3 and 68320 /mm^3 and 48336 /mm^3
- monkeys with oocyst development completely blocked in batches fed 4–5 hr and +24 hr post-treatment ([3]; 5.0 mg/kg): 3/3
- time to render mature gametocytes non-infective to mosquitoes ([3]; 3.75 and 5.00 mg/kg): 4 to 5 h
- sporozoites in salivary gland dissections, days 14–20 post infective blood meal ([3]; batches with blocked oocyst development (2.5, 3.75, 5.0 mg/kg)): did not show any sporozoites
- monkeys developing infection after inoculation of homogenates of 40–50 mosquitoes from oocyst-negative batches [4]: None
- melting point: 118 to 120 °C
- sporontocidal/oocysticidal action on 24–96 hr old oocysts ([5]; 10–50 mg/kg): absence of sporontocidal/oocysticidal action
- % infectivity [5, 22]: 85.19%
- No. of mosquitoes infected/dissected [5, 22]: 23/27
- oocyst number gut (Mean ± SD) [5, 22]: 67.00 ± 43.58
- % infectivity [5, 23]: 100.0%
- No. of mosquitoes infected/dissected [5, 23]: 20/20
- oocyst number gut (Mean ± SD) [5, 23]: 133.20 ± 96.22
- % infectivity [5, 24]: 78.79%
- No. of mosquitoes infected/dissected [5, 24]: 26/33
- oocyst number gut (Mean ± SD) [5, 24]: 46.15 ± 36.70
- % infectivity [5, 25]: 88.00%
- No. of mosquitoes infected/dissected [5, 25]: 22/25
- oocyst number gut (Mean ± SD) [5, 25]: 20.36 ± 17.81
- % infectivity [5, 26]: 86.21%
- No. of mosquitoes infected/dissected [5, 26]: 25/29
- oocyst number gut (Mean ± SD) [5, 26]: 27.16 ± 20.60
- % infectivity [5, 27]: 69.23%
- No. of mosquitoes infected/dissected [5, 27]: 18/26
- oocyst number gut (Mean ± SD) [5, 27]: 40.33 ± 27.38
- % infectivity [5, 28]: 85.00%
- No. of mosquitoes infected/dissected [5, 28]: 17/20
- oocyst number gut (Mean ± SD) [5, 28]: 144.47 ± 60.35
- concentration at which fall in GSH levels reached statistical significance [6]: 31250 ng/mL
- GSH (mg %) Mean ± SE ([6]; dose 1.25 μg/ml): 44.08 ± 5.80 mg %
- GSH (mg %) Mean ± SE ([6]; dose 6.25 μg/ml): 42.50 ± 5.85 mg %

Reference: patent US7183291B2 (Council of Scientific and Industrial Research, priority 1999, dated 2007)
